Measured values: patent EP4755885A1 (Shanghai Hansoh Biomedical Co., Ltd., priority 2023, dated 2025)

Assays:
[1] = Pharmacokinetic evaluation in rats, oral administration; parameters: species or system SD rats; conditions: rat, in vivo, p.o. 5 mg/kg, plasma
Procedure: SD rats were used as test animals to study the pharmacokinetic behavior of the following example compounds, administered orally at a dose of 5 mg/kg, in the plasma of the rats. SD rats, 3 per group, male. […] An example compound was weighed and added to a 4 mL glass bottle, and the solution was added. […] Sonication was performed for 10 min to obtain a colorless clear solution having a concentration of 0.5 mg/mL. […] The blood samples were placed in EDTA-K2 tubes and centrifuged at 6000 rpm at 4°C for 6 min to separate plasma, which was stored at -80°C. […] • Liquid phase conditions: Shimadzu LC-20AD pump • Mass spectrometry conditions: AB Sciex API 4000 mass spectrometer • Chromatographic column: phenomenex Gemiu 5 um C18 50 × 4.6 mm • Mobile phase: Solution A was 0.1% formic acid aqueous solution, and Solution B was methanol • Flow rate: 1.0 mL/min • Elution time: 0-4.0 min, the eluent was as follows: […] The results of the rat pharmacokinetic experiment are shown in the table below: Table 5: Pharmacokinetic parameters of oral administration of the compound of the present invention in rats

[2] = Pharmacokinetic evaluation in Macaca fascicularis monkeys, intravenous administration; assay type: in vivo; conditions: cynomolgus monkey, I.V. 0.2 mg/kg, plasma
Procedure: Macaca fascicularis monkeys were used as test animals to study the pharmacokinetic behavior of the compound of the present invention, administered intravenously at a dose of 0.2 mg/kg, in Macaca fascicularis monkeys (plasma).
Macaca fascicularis monkeys, 3 per group, male, Guangxi Xiongsen, Animal Production License No.: SCXK (Gui) 2021-0004).
Preparation of drug for intravenous administration: 5%DMSO+10%Solutol HS15+85%PBS
The compound of the present invention was weighed. 5% DMSO was first added according to the proportion in the total volume, followed by vortexing and sonication for 2 min to achieve complete dissolution. Then 10% Solutol HS15 was added, followed by vortexing and sonication for 2 min to achieve complete dissolution. Finally, 85% PBS was added, followed by vortexing and sonication for 5 min and filtering through a 0.22 um filter membrane to obtain a colorless, transparent, clear solution having a concentration of 0.1 mg/mL.
Three Macaca fascicularis monkeys, male, respectively administered I.V. after fasting overnight, at a dose of 0.2 mg/kg and in an administration volume of 2 mL/kg.
0.5 mL of blood was collected from the forelimb vein of the Macaca fascicularis monkeys before administration and at 0.083, 0.25, 0.5, 1, 2, 4, 8, and 24 h after administration. The blood samples were placed in EDTA-K2 tubes and centrifuged at 6000 rpm at 4°C for 6 min to separate plasma, which was stored at -80°C.
40 µL of a plasma sample was added with 160 µL of acetonitrile for precipitation, and after mixing, the mixture was centrifuged at 3500 × g for 5 to 20 min.
100 µL of the supernatant solution after treatment was taken for LC/MS/MS analysis of the concentration of the test compound.
Liquid phase condition: Shimadzu LC-20AD pump Mass spectrometry condition: AB Sciex API 4000 mass spectrometer Chromatographic column: phenomenex Gemiu 5 um C18 50 × 4.6 mm Mobile phase: Solution A was 0.1% formic acid aqueous solution, and Solution B was acetonitrile Flow rate: 0.8 mL/min Elution time: 0-4.0 min, the eluent was as follows:
Main pharmacokinetic parameters were calculated using WinNonlin 8.2. The results of the Macaca fascicularis monkey pharmacokinetic experiment are shown in Table 8 below: Table 8: Pharmacokinetic parameters of injection administration of the compound of the present invention in Macaca fascicularis monkeys

Q: What does the source list for `[2H]C([2H])([2H])n1nc2c3c(c(-n4ccn(-c5c6c(nn5-c5cc(C)c(F)c(C)c5)CCN(C(=O)c5cc7cc([C@H]8CCOC(C)(C)C8)ccc7n5[C@@]5(c7noc(=O)[nH]7)C[C@@H]5C)[C@H]6C)c4=O)ccc31)OCCC2` [Example 282, 3-((1S,2S)-1-(5-((S)-2,2-dimethyltetrahydro-2H-pyran-4-yl)-2-((S)-2-(4-fluoro-3,5-dimethylphenyl)-4-methyl-3-(3-(2-(methyl-d3)-2,7,8,9-tetrahydrooxaheptano[4,3,2-cd]indazol-5-yl)-2-carbonyl-2,3-dihydro-1H-imidazol-1-yl)-4,5,6,7-tetrahydro-2H-pyrazolo[4,3-c]pyridine-5-carbonyl)-1H-indol-1-yl)-2-methylcyclopropyl)-1,2,4-oxadiazol-5(4H)-one]?
A: AUC(0-inf) [1]: 13900 ng·h/mL; AUC(0-t) at 24 h [1]: 12200 ng·h/mL; Cmax [1]: 971 ng/mL; Tmax [1]: 6 h; half-life [1]: 7.3 h; MRT inf ([1]; read-out: MRT 0-∞): 12 h; AUC(0-inf) [2]: 1930 ng·h/mL; AUC(0-t) [2]: 1680 ng·h/mL; C0 [2]: 1080 ng/mL; half-life [2]: 9.8 h; MRT inf ([2]; read-out: MRT 0-∞): 10.3 h
